Source: patent US4201784A, “Substituted 2-[2'-(5"-nitrofuryl-2")vinyl-and 4'-(5"-nitrofuryl-2"-1,3-butadieryl]quinoline-4-carboxylic acid amides and salts thereof” (Institut Organicheskogo Sinteza Akademii Nauk Latviiskoi SSR, priority 1977, dated 1980)

Tests used:
Ehrlich ascitic tumor [1] = experiment: Antitumor activity, life prolongation of mice with Ehrlich ascitic tumor; type: in vivo
Description: The experiment was conducted as follows. 10^6 cells of Erlich tumuor were injected in common white mice intraperitoneally, the dose being given per each animal. […] Each dose of the preparation was tested in six mice. The control group included 18 mice. Giniquine solution was prepared by dissolving the substance ex tempore in distilled water or in a buffer. The effect of the preparation is shown on charts 1,2,3.

[2] = test system: lymphatic leukemia L 5178; experiment: Antitumor activity, life prolongation, lymphatic leukemia L 5178; type: in vivo, mice
Description: (§1) Apart from the tests on Ehrlich ascitic tumor, giniquine was studied on twelve more inoculated tumors. Seven tumors (melanoma B16, sarcoma AK, large intestine carcinoma acatol-1, sarcoma 180, adenocarcinoma 755, Lewis lung carcinoma and sarcoma 37) were inoculated subcutaneously with 50 mg of tumoral cells per mouse. Four tumors (lymphatic leukemies L 5178, L 5178Y, L 1210 and P-388) were inoculated intraperitoneally with 10^6 cells per mouse. One tumor (La, hemocytoblastosis) was inoculated intraperitoneally by injecting 50 mg of cell suspension of spleen and liver of mice suffering La hemocytoblastosis, per mouse. Giniquine was injected intraperitoneally five times for seven days: 1,2,3,4,7 days or 3,4,5,6,7 days after the implantation of tumor. The rate of deceleration of the tumor growth was established 14 days after the ultimate injection of giniquine; life of test animals was recorded for 60 days.

adenocarcinoma 755 = experiment: Antitumor activity, adenocarcinoma 755; type: in vivo, mice; settings: daily doses of 10 and 17 mg/kg
Description: as §1

sarcoma 180 = experiment: Antitumor activity, sarcoma 180; type: in vivo, mice
Description: as §1

sarcoma AK = experiment: Antitumor activity, sarcoma AK; type: in vivo, mice
Description: as §1

melanoma B16 = experiment: Antitumor activity, melanoma B16; type: in vivo, mice; settings: 17 mg/kg
Description: as §1, with “Giniquine was injected intraperitoneally five times for seven days: 1,2,3,4,7 days or 3,4,5,6,7 days after the implantation of tumor.” left out

Lewis lung carcinoma = experiment: Antitumor / antimetastatic activity, Lewis lung carcinoma; type: in vivo, mice; settings: daily doses of 6 and 10 mg/kg
Description: as §1

sarcoma 37 = experiment: Antitumor activity, life prolongation, sarcoma 37; type: in vivo, mice
Description: as §1

Pliss lymphosarcoma = experiment: Antitumor activity, Pliss lymphosarcoma; type: in vivo; settings: peroral administration
Excerpt: (§2) "J. Pharm. Soc. Japan." 1964, 84(6). pp. 537-543; K. Miura, I. Okada. "Chem. Pharm. Bull." 1965. 13 (15). pp. 525-528].

[3] = in vivo; cited from earlier work
Jensen sarcoma [4] = experiment: Growth deceleration / antitumor activity, Jensen sarcoma; type: in vivo; settings: peroral administration
Excerpt: (§3) An antiblastic effect is caused by products of condensation of aldehydes of the nitrofuran series with (β-hydrazinoethyl)pyridine, 3-hydrazino-4-amino-1,2,4-triazole [Giller S. A., Kalnberga R. Yu., Zidermane A. A. et al. In the book "Methods of Synthesis and Search for Antitumor Preparations" (in Russian). Iss. 2. M. 1967. pp. 75-81; Giller S. A. et al. In the book "Furozolidine". (in Russian). Riga, 1962. pp. 5-18; Duavarte A. Zh., Zidermane A. A., Kravchenko I. M. et al. In the book "Proceedings of the 1st All-Union Conference on Chemotherapy of Malignant Tumors." Riga. 1968. pp. 216-217; Duavarte A. Zh. et al. In the book "Antitumor Compounds of the 5-nitrofuran Series." (in Russian). Riga, 1972. pp. 17-30)] and 5-aminobenzimidazol [Fuska J., Fuskova A., Jurasek A. "Neoplasma (Bratisl.)". 1973. v. 20. pp. 171-179].
as §2

Walker carcinosarcoma [5] = experiment: Growth deceleration / antitumor activity, Walker carcinosarcoma; type: in vivo; settings: peroral administration
Excerpt: as §3, §2

acatol-1 = experiment: Antitumor activity, large intestine adenocarcinoma acatol-1; type: in vivo, mice
Description: as §1

[6] = in vivo; cited from earlier work; remark: listed apart in the source
Walker carcinosarcoma [7] = settings: cited from earlier work
Jensen sarcoma [8] = settings: cited from earlier work
La hemocytoblastosis = experiment: Antitumor activity, La hemocytoblastosis; type: in vivo, mice; settings: 10 mg/kg
Description: as §1

Ehrlich ascitic tumor [9] = experiment: Influence of fluorafur on antitumor activity of giniquine, Ehrlich ascitic tumor; type: in vivo, mice
Description: In some experiments the influence of the known preparation fluorofur on the antitumoral activity of giniquine was studied. […] The tests were made on Ehrlich ascitic tumor. The preparations were injected 1,2,3,4 and 7 days after the implantation of tumor. Giniquine was injected intraperitoneally and fluorafur-subcutaneously.
giniquine was injected intraperitoneally, and fluorafursubcutaneously.

For `CCN(CC)CCCC(C)NC(=O)c1cc(C=Cc2ccc([N+](=O)[O-])o2)nc2ccccc12` (stereo not drawn) [2-[2'-(5"-nitrofuryl-2")vinyl]quinoline-4-carboxylic acid (α-methyl-δ-diethylaminobutyl)amide chloride], the prolongation of life (Ehrlich ascitic tumor [1]; single intraperitoneal injection, 6 mg/kg, 7 days after inoculation) was 85%.
In the case of `CCN(CC)CCCC(C)NC(=O)c1cc(C=Cc2ccc([N+](=O)[O-])o2)nc2ccccc12` (stereo not drawn) [2-[2'-(5"-nitrofuryl-2")vinyl]quinoline-4-carboxylic acid (α-methyl-δ-diethylaminobutyl)amide diphosphate], the prolongation of life ([2]; lymphatic leukemia) was “up to 130%”, the prolongation of life (adenocarcinoma 755) was “up to 20%” and the prolongation of life (Ehrlich ascitic tumor [1]; 3-5 intraperitoneal injections, daily doses 10 to 28 mg/kg) was 140 to 180%. The prolongation of life (sarcoma 180; daily doses of 10 and 17 mg/kg) was “up to 20%”.
With `CCN(CC)CCCC(C)NC(=O)c1cc(C=Cc2ccc([N+](=O)[O-])o2)nc2ccccc12` (stereo not drawn) [2-[2'-(5"-nitrofuryl-2")vinyl]quinoline-4-carboxylic acid (α-methyl-δ-diethylaminobutyl)amide] the prolongation of life (sarcoma AK; sarcoma AK) was “up to 20%”, the prolongation of life ([2]; 6 to 28 mg/kg) was 30 to 140% and the prolongation of life (melanoma B16) was “up to 25%”. The prolongation of life (Lewis lung carcinoma) was 30%, the prolongation of life (Ehrlich ascitic tumor [1]; three injections, 10 and 17 mg/kg) was 70 to 130% and the prolongation of life (sarcoma 180; sarcoma 180) was “up to 20%”.
For `O=C(NCCCO)c1cc(C=Cc2ccc([N+](=O)[O-])o2)nc2ccccc12` [2-[2'-(5"-nitrofuryl-2")vinyl]quinoline-4-carboxylic acid (γ-hydroxypropyl)amide], the prolongation of life (sarcoma AK; 2.8 mg/kg) was “up to 20%”, the prolongation of life ([2]; lymphatic leukemia L 5178) was “up to 40%” and the prolongation of life (Ehrlich ascitic tumor [1]; 7.5 mg/kg to 12.5 mg/kg, five injections) was “up to 120%”. For the same compound, the prolongation of life (sarcoma 37; 12.5 mg/kg) was 90%.
For `NC(=O)c1cc(C=Cc2ccc([N+](=O)[O-])o2)nc2ccccc12` [2-[2'-(5"-nitrofuryl-2")vinyl]quinoline-4-carboxylic acid amide], the antitumor activity (Pliss lymphosarcoma) is given as “not found any antitumor activity”, the antitumoral activity [3] is given as “a very narrow range of antitumoral activity” and the antitumor activity (Jensen sarcoma [4]) is given as “not found any antitumor activity”. For the same compound, the antitumor activity (Walker carcinosarcoma [5]) was “not found any antitumor activity”.
With `CCN(CC)CCCC(C)NC(=O)c1cc(C=Cc2ccc([N+](=O)[O-])o2)nc2ccccc12` (stereo not drawn) [2-[2'-(5"-nitrofuryl-2")vinylquinoline]-4-carboxylic acid (α-methyl-δ-diethylaminobutyl)amide dibromide] the prolongation of life (Ehrlich ascitic tumor [1]; single intraperitoneal injection, 28 mg/kg, 7 days after inoculation) was 85%.
With `CCN(CC)CCCC(C)NC(=O)c1cc(C=CC=Cc2ccc([N+](=O)[O-])o2)nc2ccccc12` (stereo not drawn) [2-[4'-(5"-nitrofuryl-2")-1,3-butadienyl]quinoline-4-carboxylic acid (α-methyl-δ-diethylaminobutyl)amide diphosphate] the “antiblastic activity / sensitivity (in words)” value ([2]; lymphatic leukemia L 5178) was “a certain sensitivity”, the “antitumor effect / sensitivity (in words)” value (acatol-1; acatol-1) was “a certain sensitivity” and the prolongation of life (Ehrlich ascitic tumor [1]; doses of 3.6-10 mg/kg) was 60 to 160%. For the same compound, the “antitumor effect / sensitivity (in words)” value (sarcoma 180; sarcoma 180) was “a certain sensitivity” and the prolongation of life (sarcoma 37; daily dose of 17 mg/kg, intraperitoneal) was “up to 120%”.
For `O=Cc1ccc([N+](=O)[O-])o1` [5-nitrofurfural], the “acute toxicity compared with 5-nitrofuran” value [6] is listed as “a higher acute toxicity”, the “activity compared with 5-nitrofuran” value (Walker carcinosarcoma [7]) is listed as “about the same activity” and the “activity compared with 5-nitrofuran” value (Jensen sarcoma [8]) is listed as “about the same activity”.
For `O=[N+]([O-])c1ccco1` [Example 5-nitrofuran, 5-nitrofuran], the deceleration of growth (Walker carcinosarcoma [7]) is given as 39-51% and the deceleration of growth (Jensen sarcoma [8]) is given as 39-51%.
For `O=C(NCCCO)c1cc(C=CC=Cc2ccc([N+](=O)[O-])o2)nc2ccccc12` [[4'-(5"-nitrofuryl-2")-1,3-butadienyl]quinoline-4-carboxylic acid (γ-hydroxypropyl)amide], the prolongation of life ([2]; 1 mg/kg) was “up to 40%”, the prolongation of life (acatol-1; 10 mg/kg) was “about 20%” and the prolongation of life (Ehrlich ascitic tumor [1]; 17 mg/kg) was “up to 80%”. The prolongation of life (La hemocytoblastosis) was “about 20%”.
With `O=P1(N(CCCl)CCCl)NCCCO1` (stereo not shown) [cyclophosphane, reference compound] the “increase in mice life” value (Ehrlich ascitic tumor [1]; Ehrlich ascitic tumor) was 0%.
Work on `O=c1[nH]c(=O)n(C2CCCO2)cc1F` (stereo not shown) [fluorafur, reference compound] yielded a Life prolongation (Ehrlich ascitic tumor [9]; Test No. 1, fluorafur 39.0 mg/kg daily) of 35%, a Life prolongation (Ehrlich ascitic tumor [9]; Test No. 1, fluorafur 65.0 mg/kg daily) of 37% and a Life prolongation (Ehrlich ascitic tumor [9]; Test No. 1, fluorafur 108.0 mg/kg daily) of 40%. It also gave a Life prolongation (Ehrlich ascitic tumor [9]; Test No. 1, fluorafur 180.0 mg/kg daily) of 52%, a Life prolongation (Ehrlich ascitic tumor [9]; Test No. 2, fluorafur 39.0 mg/kg daily) of 18% and a Life prolongation (Ehrlich ascitic tumor [9]; Test No. 2, fluorafur 65.0 mg/kg daily) of -5%. It also gave a Life prolongation (Ehrlich ascitic tumor [9]; Test No. 2, fluorafur 108.0 mg/kg daily) of -17% and a Life prolongation (Ehrlich ascitic tumor [9]; Test No. 2, fluorafur 180.0 mg/kg daily) of -33%.
